Results taken from patent US20020198215A1 (priority 2000, published 2002).

What was measured:
[1] = Calculation of the release rate for a terazosin transdermal delivery system from literature pharmacokinetic data; conditions: product of steady state concentration and clearance rate
Description: Therefore, an equal dose is required to be delivered transdermally. […] The largest desirable surface area for a transdermal patch is about 40 cm^2. […] To account for drug elimination, further pharmacokinetic data and physiological data was required. […] The largest desirable surface area for a transdermal patch is about 40 cm^2. […] One of skill would expect a different input rate or flux to maintain a steady state concentration in consideration of the rate of loss of drug in the plasma due to elimination. A confirmatory calculation for flux requires further pharmacokinetic parameters. […] The largest desirable surface area for a transdermal patch is about 40 cm^2. […], yields a release rate of […] of transdermal patch surface area.

[2] = cited from earlier work
[3] = after oral administration; cited from earlier work
plasma proteins = conditions: cited from earlier work
[4] = terazosin therapy; cited from earlier work

## COc1cc2nc(N3CCN(C(=O)C4CCCO4)CC3)nc(N)c2cc1OC (stereo not drawn) [terazosin, Terazosin]
[1]
  dosing rate: 216 µg/h
[2]; hemodialysis
  removed during hemodialysis: 10%
[2]; impaired renal function
  effect of impaired renal function on elimination: no significant effect
[2]; in vivo
  dose excreted renally as unchanged drug: 10%
  physiological clearance rate: 4,800 ml/hour
  plasma concentration at steady state: 45 ng/mL
[2]; oral administration
  first-pass effect: minimal first-pass effect
  time of peak plasma levels after administration: about 1 hour
[2]; oral dose, gastrointestinal absorption
  bioavailability: 90%
[2]; oral, presence of food
  effect of food on terazosin bioavailability: no significant effect
[2]; oral, with food
  delay of time to peak concentrations by food: about 1 hour
[2]; treatments from 1 to 5 days, dosages up to 40 mg
  plasma drug concentrations versus dosage: increased proportionately
[3]
  time until antihypertensive effects are seen: ≤ 15 min
Plasma proteins
  bound to plasma proteins: 90-94%
[4]
  adverse effect: asthenia (weakness, tiredness, and fatigue): 11%
  adverse effect: dizziness: 19%
  adverse effect: drowsiness: 5%
  adverse effect: headache: 16%
  adverse effect: nasal congestion: 6%
  adverse effect: nausea/vomiting: 4.4%
  adverse effect: peripheral edema: 6%
